Inhibition and IC50 data for seven compounds are collected here from ChEMBL document CHEMBL3769350, “Synthesis and biological evaluation of piperazine group-linked bivalent -carbolines as potential antitumor agents” (Medchemcomm, 2015).

For experiment [1], the system named is Chorioallantoic membrane. The experiment is described as follows: Antiangiogenic activity in chicken chorioallantoic membrane at 200 uM after 48 hrs by microscopic analysis. Format: functional. The following applies: Gallus gallus.
Experiment [2] is described as follows: Cytotoxicity against human BGC823 cells by MTT assay. The format is functional, cell-based. The following applies: BGC-823.
In a further experiment the test system is HepG2. The experiment is described as follows: Cytotoxicity against human HepG2 cells by MTT assay. Format: functional, cell-based.
In another experiment the test system is 769-P. The experiment is described as follows: Cytotoxicity against human 769-P cells by MTT assay. The format is functional, cell-based.
The next experiment concerns CWR22R. The experiment is described as follows: Cytotoxicity against human 22Rv1 cells by MTT assay. The format is functional, cell-based.
A short description of experiment [3]: Cytotoxicity against mouse LLC cells by MTT assay. The format is functional, cell-based. The following applies: Lewis lung carcinoma.
The next experiment concerns A-375. The experiment is described as follows: Cytotoxicity against human A375 cells by MTT assay. Format: functional, cell-based.
Another experiment concerns HT-29. The experiment is described as follows: Cytotoxicity against human HT-29 cells by MTT assay. The format is functional, cell-based.
Experiment [4] in a line: Cytotoxicity against human ECA109 cells by MTT assay. Format: functional, cell-based. The following applies: ECa-109.
For a further experiment, the system named is MCF7. The experiment is described as follows: Cytotoxicity against human MCF7 cells by MTT assay. The format is functional, cell-based.
The nature of experiment [5]: Cytotoxicity against human SKOV3 cells by MTT assay. The format is functional, cell-based. The following applies: SK-OV-3.
Experiment [6] relates to Chorioallantoic membrane. The experiment is described as follows: Antiangiogenic activity in chicken chorioallantoic membrane at 50 to 200 uM after 48 hrs by microscopic analysis. The following applies: Gallus gallus. The format is functional.

Structures are written as SMILES. pIC50: −log10 of the molar value. Calls of active or inactive are those of the source. The calls are words filed in the database; no cut-off is given here. A value given as a limit tells only on which side of the number the result lay.

In the case of `COc1ccc(/C=C\c2cc(OC)c(OC)c(OC)c2)cc1OP(=O)(O)O`, the inhibition result in the experiment on Chorioallantoic membrane [1] is “Active”.

Take `COc1cc(-c2nc(CN3CCN(Cc4cc5c([nH]c6ccccc65)c(-c5cc(OC)c(OC)c(OC)c5)n4)CC3)cc3c2[nH]c2ccccc23)cc(OC)c1OC`: the pIC50 (in experiment [2]; in the experiment with HepG2; in the experiment on 769-P; in the experiment on CWR22R; in [3]; with A-375) was below 4.00 in each case. The pIC50 (in the experiment on HT-29; in experiment [4]; in the experiment with MCF7; in [5]) was below 4.00 throughout.

Turning to `COc1ccc(-c2nc(CN3CCN(Cc4cc5c6ccccc6n(CCCc6ccccc6)c5c(-c5ccc(OC)cc5)n4)CC3)cc3c4ccccc4n(CCCc4ccccc4)c23)cc1`, the pIC50 (in experiment [2]; with HepG2; with 769-P; in the experiment with CWR22R; in experiment [3]; in the experiment on A-375) was below 4.00 throughout. In addition, the pIC50 (in the experiment on HT-29; in experiment [4]; in the experiment on MCF7; in experiment [5]) was below 4.00 in each case.

Take `CCn1c2ccccc2c2cc(CN3CCN(Cc4cc5c6ccccc6n(CC)c5c(-c5ccccc5)n4)CC3)nc(-c3ccccc3)c21`: the pIC50 was 4.41 in experiment [2]; below 4.00 in the experiment on HepG2; 4.53 with 769-P; 4.60 in the experiment on CWR22R; 4.85 in experiment [3]; 5.00 in the experiment with A-375. Further, the pIC50 in the experiment with HT-29 is 4.75; in [4] it was below 4.00; in the experiment on MCF7, below 4.00; in experiment [5], 4.70.

On to `Cc1nc(CN2CCN(Cc3cc4c5ccccc5n(CC(C)C)c4c(C)n3)CC2)cc2c3ccccc3n(CC(C)C)c12`, for which the pIC50 in experiment [2] is 4.97; in the experiment on HepG2 it was 5.02; with 769-P it was 4.89; in the experiment with CWR22R it was 4.90; in [3] it was 5.11; in the experiment with A-375, 4.89. Also, the pIC50 was 4.95 in the experiment with HT-29, 4.84 in [4], 5.15 in the experiment on MCF7 and 4.80 in experiment [5]. For the same compound, the inhibition entry in the experiment on Chorioallantoic membrane [6] is “Active”.

In the case of `Fc1ccc(Cn2c3ccccc3c3cc(CN4CCN(Cc5cc6c7ccccc7n(Cc7ccc(F)cc7)c6cn5)CC4)ncc32)cc1`, the negative logarithm of the IC50 (pIC50) in experiment [2] was 4.07; with HepG2, 4.12; in the experiment with 769-P, 4.54; in the experiment with CWR22R, 4.22; in [3], 4.80; in the experiment on A-375, 4.34. For the same compound, the pIC50 in the experiment with HT-29 was 4.74; in experiment [4] it was 4.61; with MCF7 it was 4.14; in experiment [5], 5.07.

For `CCCCn1c2ccccc2c2cc(CN3CCN(Cc4cc5c6ccccc6n(CCCC)c5c(-c5cc(OC)c(OC)c(OC)c5)n4)CC3)nc(-c3cc(OC)c(OC)c(OC)c3)c21`, the pIC50 was 4.58 in [2]; 5.14 with HepG2; 4.81 in the experiment with 769-P; 5.17 with CWR22R; 4.70 in experiment [3]; 4.44 in the experiment on A-375. Besides, the pIC50 with HT-29 is 4.87; in experiment [4], 4.74; in the experiment with MCF7 it was 4.90; in [5], 5.15.
